From PMC10818380, “Triphenylphosphonium Analogs of Short Peptide Related to Bactenecin 7 and Oncocin 112 as Antimicrobial Agents” (Pharmaceutics, 2024)
Values after ≈ are worked out from the molar mass of the structure shown. Read-outs that look alike come from different tables or passages of the source.

Assays:
HEK293T = assay: cells; assay type: cell-based, human; conditions: 72 h
Protocol: (§1) The cytotoxicity of the substances under study was tested using the MTT (3-(4,5-dimethylthiazol-2-yl)-2,5-diphenyltetrazolium bromide) assay with some modifications. The detailed procedure for the MTT assay is given in the Supplementary Materials (Section S5).
(§2) Two thousand five hundred cells per well for the MCF7, HEK293T, and A549 cell lines or 4000 cells per well for the VA13 cell line were plated in 135 µL of DMEM-F12 media with 10% FBS (both Gibco, Waltham, MA, USA) in a 96-well plate and were incubated in a 5% CO2 incubator for the first 16 h, without treatment. Then 15 µL of media-DMSO solutions of the tested substances were added to the cells (the final DMSO concentrations in the media were 1% or less), and the cells were treated for 72 h with 25 nM–50 µM (eight dilutions) of the tested substances (triplicate each). Serial dilutions of DMSO and doxorubicin were used as controls. The MTT reagent (Paneco LLC, Moscow, Russia) was then added to the cells at a final concentration of 0.5 g/L (10× stock solution in PBS was used) and incubated for 2.5 h at 37 °C in the incubator under an atmosphere of 5%
(§3) CO2. The MTT solution was then discarded, and 140 µL of DMSO (PharmaMed LLC, Krasnodar, Russia) was added. The plates were swayed on a shaker (60 rpm) to dissolve the formazan. The absorbance was measured using the VICTOR X5 Multilabel Plate Reader (PerkinElmer, Wa l th a m, MA, USA) at a wavelength of 565 nm (in order to measure formazan concentration). The resu l ts were used to construct a dose-response graph and to estimate IC50 values.
(§4) Figure S11.The dependencies of viability of cells after treatment by tested compounds.
(§5) (1 picture or pasted object on this page, not shown here)

MCF7 = assay: cells; assay type: cell-based, human
Protocol: as §1, §2, §3, §4, §5

VA13 = assay: cells; assay type: cell-based, human
Protocol: as §1, §2, §3, §4, §5

A549 = assay: cells
Protocol: as §1, §2, §3, §4, §5

[1] = tested on: E. coli JW5503 (∆tolC) (KanS) pDualrep2; assay: pDualrep2 double-reporter agar plate test; assay type: cell-based; conditions: 1 µL of 10 mM solution on agar plate
Protocol: The “pDualrep2” system was used to evaluate the mechanism of the antimicrobial action of the synthesized compounds. This system is based on the hypersensitive strain E. coli JW5503 (∆tolC) (KanS) transformed with the “pDualrep2” plasmid, which allows one to sort out suppressors of protein synthesis or SOS response inducers. Briefly, 1 µL of 10 mM water solutions of Bac(1–10), Bac(1–10, R/Y), Bac(1–10, R/Y)-Cn-TPP, TPP-C10-Bac(1–10, R/Y), and Onc112 were applied onto the agar plate that already contained a layer of the reporter strain E. coli JW5503 (∆tolC) (KanS) pDualrep2, and then the plate was incubated overnight at 37 °C. The agar plate was scanned using the ChemiDoc^TM Imaging System (Bio-Rad Laboratories, Hercules, CA, USA), containing two channels, “Cy3-blot” (553/574 nm; green pseudocolor) for Turbo Red Fluorescent Protein (TurboRFP) detection and “Cy5-blot” (588/633 nm; red pseudocolor) for Katushka2S fluorescence. […] Levofloxacin (LEV; 50 μg/mL, 1 μL) and erythromycin (ERY; 5 mg/mL, 1 μL) were utilized as positive controls for DNA and protein synthesis inhibitors, respectively.

B. subtilis 168 = assay: microbe, parasite or virus in culture; assay type: cell-based
Protocol: (§6) The MIC values for Bac(1–10), Bac(1–10, R/Y), Bac(1–10, R/Y)-Cn-TPP, TPP-C10-Bac(1–10, R/Y), and Onc112 were determined via LB broth microdilution, as recommended by CLSI in the Methods for Dilution Antimicrobial Susceptibility Tests for Bacteria that Grow Aerobically, Approved Standard, 9th ed., CLSI document M07-A9, using in-house-prepared panels. The compounds were diluted in a 96-well microtiter plate to final concentrations ranging from 0.1 to 100 µM in a 200 µL aliquot of the bacterial suspension, followed by incubation at 37 °C for 18 h. The cell concentration was estimated according to the absorbance (A600). The measurements were performed with a VICTOR X5 Multilabel Plate Reader (PerkinElmer, Waltham, MA, USA). The following bacterial strains were used: E. coli BW25113, E. coli JW0368 ΔsbmA, B. subtilis 168, and B. subtilis CFR [39].

B. subtilis CFR = assay: microbe, parasite or virus in culture; assay type: cell-based; conditions: 18 h
Protocol: as §6

E. coli BW25113 = assay: microbe, parasite or virus in culture; assay type: cell-based; conditions: E. coli BW25113, 37 °C, 18 h
Protocol: as §6

E. coli JW0368 ΔsbmA = assay: microbe, parasite or virus in culture; assay type: cell-based; conditions: 18 h
Protocol: as §6

70S E. coli ribosome = assay: Competition-binding assay, displacement of BODIPY-Bac(1–10), fluorescence anisotropy; conditions: CI (α = 0.05), read-out: apparent dissociation constant (KD)
Protocol: 70S ribosomes were isolated from E. coli MRE600 cells according to a published procedure. The binding of BODIPY-Bac(1–10) to 70S E. coli ribosomes was performed according to the following procedure. BODIPY-Bac(1–10) (16 nM) was incubated with ribosomes (from 0.5 nM to 2000 nM) for 2 h at 26 °C in a buffer containing 20 mM of HEPES-KOH (pH 7.5), 50 mM of NH4Cl, 10 mM of Mg(CH3COO)2, 4 mM of β-mercaptoethanol, and 0.05% Tween-20. The binding affinities of peptides 1 and 2, their TPP analogs 3–5, as well as the control compounds for the E. coli ribosome were analyzed via a competition-binding assay using fluorescently labeled BODIPY-Bac(1–10) or BODIPY-ERY, as described before in [38, 54]. The fluorescent compound (16 nM) was mixed with ribosomes (84 nM for BODIPY-Bac(1–10) and 46 nM for BODIPY-ERY) in the buffer. Solutions of the tested compounds were added to the obtained complexes to final concentrations ranging from 0.01 to 100 µM. The mixtures were incubated for 2 h at 26 °C, and then the values of fluorescence anisotropy were measured with a VICTOR X5 Multilabel Plate Reader (PerkinElmer, Waltham, MA, USA) using a 384-well plate. The excitation wavelength was 485 nm, and the emission wavelength was 535 nm. From the data obtained, apparent dissociation constants were calculated.

[2] = tested on: bacterial translation (E. coli S30 extract); assay: In vitro translation inhibition of firefly luciferase mRNA, E. coli S30 extract; assay type: biochemical; conditions: 30 µM
Protocol: Briefly, in vitro-transcribed firefly luciferase mRNA (fluc) was translated using the E. coli S30 Extract System for Linear Templates (Promega, Madison, WI, USA). Reaction mixtures (with a 5 μL total volume) supplemented with 0.1 mM of a mixture of all canonical amino acids, 4 U of RiboLock RNase Inhibitor (Thermo Fisher Scientific, Waltham, MA, USA), and 0.1 mM of D-luciferin (Sigma-Aldrich, Burlington, MA, USA) were pre-incubated at RT for 5 min after the addition of the tested compounds at a final concentration of 30 µM. Then, 50 ng of the mRNA was added to each reaction tube, and the mixtures were immediately subjected to continuous chemiluminescence measurements using the VICTOR X5 Multilabel Plate Reader (PerkinElmer, Waltham, MA, USA) at 37 °C for 30 min. The maximal rates of the firefly luciferase (Fluc) accumulation were calculated using the OriginPro 7.5 software. The values were normalized to a positive control (0.3% DMSO, assigned a value of 100%).

B. subtilis = assay: Membrane potential with fluorescent probe diS-C3-(5); assay type: cell-based; conditions: 50 µM, diS-C3-(5) fluorescence
Protocol: The membrane potential of B. subtilis was assessed by measuring the fluorescence emitted by the potential-dependent probe, diS-C3-(5). Bacterial cells derived from the overnight culture of B. subtilis were inoculated into a fresh LB medium and allowed to grow for 24 h until reaching an optical density of 0.8 at 600 nm. Subsequently, the bacteria were subjected to a 20-fold dilution in a buffer comprising 100 mM of KCl and 10 mM of Tris, adjusted to a pH of 7.4. Fluorescence measurements were conducted at 670 nm (with excitation at 630 nm) using a Fluorat-02-Panorama fluorimeter manufactured by Lumex Instruments in St. Petersburg, Russia.

With COc1cccc2c1C(=O)c1c(O)c3c(c(O)c1C2=O)C[C@@](O)(C(=O)CO)C[C@@H]3O[C@H]1C[C@H](N)[C@H](O)[C@H](C)O1 [Doxorubicin, reference compound] as the molecule, how does the IC50 (HEK293T; Homo sapiens, HEK-293T, HEK293T, MTT, read-out: IC50 (50% inhibition of viability of cells)) read?
Its IC50 is less than 1.6 µM.

And the IC50 (MCF7; Homo sapiens, MCF7, 72 h, MTT, read-out: IC50 (50% inhibition of viability of cells))?
The IC50 was 1.7 ± 0.2 µM.

And the IC50 (VA13; Homo sapiens, VA-13, VA13, 72 h, MTT, read-out: IC50 (50% inhibition of viability of cells))?
The IC50 was 1.2 ± 0.3 µM.

And the IC50 (A549; Homo sapiens, A549, 72 h, read-out: IC50 (50% inhibition of viability of cells))?
Its IC50 is 1.2 ± 0.1 µM.

Which results are given for CC[C@H]1OC(=O)[C@H](C)[C@@H](O[C@H]2C[C@@](C)(OC)[C@@H](O)[C@H](C)O2)[C@H](C)[C@@H](O[C@@H]2O[C@H](C)C[C@H](N(C)C)[C@H]2O)[C@](C)(O)C[C@@H](C)C(=O)[C@H](C)[C@@H](O)[C@]1(C)O [ERY, erythromycin, reference compound]?
reporter induction (Katushka2S red pseudocolor = protein synthesis inhibition) [1]: red pseudocolor reporter induction was observed; MIC (B. subtilis 168; Bacillus subtilis, B. subtilis 168, 37 °C, 18 h): < 0.1 µM; MIC (B. subtilis CFR; Bacillus subtilis, B. subtilis-CFR (chloramphenicol-resistant), 37 °C): < 0.1 µM; MIC (E. coli BW25113; Escherichia coli): 170 µM (≈ 125 µg/mL); MIC (E. coli JW0368 ΔsbmA; Escherichia coli): 170 µM (≈ 125 µg/mL)

With H-RRIRPRPPRL-OH [Compound 1, Bac(1–10)] as the molecule, how does the Kd (70S E. coli ribosome) read?
Its Kd is 1.4 ± 0.1 µM.

And the “inhibition of bacterial translation of firefly luciferase (Fluc) mRNA” value [2]?
Its value is “practically did not inhibit”.

What about the “inhibitory effect on growth of bacterial cells” value [1] of the same molecule?
Its value is “did not exhibit any antibacterial activity”.

What about the MIC (B. subtilis 168; 168, 18 h) of the same molecule?
The MIC was greater than 50 µM.

And the MIC (B. subtilis CFR; CFR)?
Its MIC is greater than 50 µM.

And the “effect on membrane potential of B. subtilis” value (B. subtilis)?
Its value is “did not affect the membrane potential”.

“H-RRIRPRPPYL-OH [Compound 2, Bac(1–10, R/Y)]” was tested. Which Kd (70S E. coli ribosome) did it give?
Its Kd is 1 ± 0.1 µM.

What about the “inhibition of bacterial translation of firefly luciferase (Fluc) mRNA” value [2] of the same molecule?
The value was “practically did not inhibit”.

What about the “inhibitory effect on growth of bacterial cells” value [1] of the same molecule?
The value was “did not exhibit any antibacterial activity”.

And the MIC (E. coli BW25113)?
The MIC was greater than 100 µM.

What about the MIC (E. coli JW0368 ΔsbmA; E. coli ∆sbmA, 37 °C) of the same molecule?
Its MIC is greater than 100 µM.

What about the “effect on membrane potential of B. subtilis” value (B. subtilis) of the same molecule?
The value was “did not affect the membrane potential”.

And the IC50 (HEK293T)?
The IC50 was greater than 50 µM.

And the IC50 (MCF7; 72 h)?
The IC50 was greater than 20 µM.

What about the IC50 (VA13; 72 h) of the same molecule?
Its IC50 is greater than 50 µM.

What about the IC50 (A549; 72 h) of the same molecule?
Its IC50 is greater than 50 µM.
